# Experimental data taken from patent US20170266266A1, “Functions of 55 Newfound Proteins and Their Medicinal Application in the Treatment and Prevention of Disease” (priority 2012, published 2017).
# Test system: atherosclerosis in ApoE knock out mouse on high fat diet
# Source text: 10 ApoE ko mice were fed with regular chow diet and used as negative control group. 50 ApoE ko mice were fed with high fat diet (35% kcal fat, 1% cholesterol) for 8 weeks, and then the plasma samples were collected for lipid profile measurement before the treatment. 50 ApoE ko mice were assigned into 5 groups based on the fasting overnight plasma TC and HDL level.
# 5.2. Study Timeline: • 23 Dec. 2011: 60 ApoE mice arrived at chempartner and were housed in the animal facility in the building #3 for the acclimation. • 6 Jan. 2012: Measured the body weight for each mouse. 50 mice were fed with high fat diet and 10 mice were fed with normal chow diet. • 2 Mar. 2012: All mice were fasted over night and plasma samples (about 300 ul whole blood) were collected for lipid profile measurement before treatment with RAAS antibody. • 19 Mar. 2012 to 6 Apr. […] 2012: All mice were fasted over night and plasma sample for each mouse (about 300 ul whole blood) was collected for lipid profile measurement after 16 weeks treatment. Blood glucose was also measured for each mouse. • 9 Jul. 2012: The study was terminated after 16 weeks treatment. Measure BW, sacrificed each mouse, dissected the aorta, heart, liver and kidney and fixed them in 4% PFA.
# Antibody products were administrated by intraperitoneal injection every two days (Monday, Wednesday, and Friday). and the positive compound was administered by p.o every day.
# The body weight was weighed weekly during the period of treatment. The fasting overnight blood glucose was measured at the end of study by Roche glucometer.
# About 300 ul of blood sample was collected from the orbital vein for each mouse and centrifuged at 7000 rpm for 5 min at 4E and the plasma lipid profile was measured by Roche Modular automatic biochemistry analyzer in DaAn Medical Laboratory
# After RAAS antibody products treatment for 16 weeks, all mice were sacrificed. Measured body weight and collected blood sample for each mouse. Weighed liver weight and saved a tiny piece of liver into 4% paraformaldehyde (PFA) fixation solution for further analysis. At same time, take the photos with heart, lung, aortas and two kidneys.
# 5.8. Oil Red Staining Procedure: • 1. Sacrificed the mice and dissected the heart, aorta, and arteries under dissecting microscope. • 2. Briefly wash with PBS and fixed in 4% paraformaldehyde (PFA) overnight at 4[…]. • 3. Rinse with 60% isopropanol • 4. Stain with freshly prepared Oil Red O working solution 10 min. • 1). Oil red O stock stain: 0.5% powder in isopropanol • 2). Working solution: dilute with distilled water (3:2) and filter with membrane (0.22 um) • 5. Rinse with 60% isopropanol 10 second. • 6. Dispel the adherent bit fat outside of the aorta under the dissecting microscope. • 7. Cut the vascular wall gently and keep the integrated arteries using the micro scissors. • 8. Unfold the vascular inner wall with the cover slides and fix it by water sealing tablet.
# Scanning the glasses slides with the Aperio ScanScope system and analyze with the image proplus software to measure the area of atherosclerotic plaque lesion. The results were expressed as the percentage of the total aortic surface area covered by lesions. The operation procedure of software was briefly described as follow: Converted the sys version photos into JPG version, then calibrated it and subsequently selected the red regions and then calculate the total area automatically by image proplus software.
# The results were expressed as the Mean±SEM and statistically evaluated by student's t-test.
substance,measurement,setting,value
human Apolipoprotein AI [APOAI],plasma HDL,16 week treatment,mild trend to decrease the HDL level
same,plaque area and percentage of plaque area from root to right renal artery,16 weeks,no significant difference
same,plaque area and percentage of plaque area in arterial arch area,16 weeks,No significant difference
same,plaque area and percentage of plaque area in total inner vascular area,16 weeks,No significant difference
same,lipid profile,16 weeks treatment,did not affect the lipid profile
same,plasma TG level,16 weeks treatment,no effect
same,plaque lesion area of aorta,"16 weeks treatment, atorvastatin 40 mg/kg",did not reduce the plaque lesion area of aorta
same,deaths in treatment groups,"after 15 doses, i.p. daily on weekdays",several mice died in the treatment groups
same,body weight vs vehicle group,"mouse, in vivo",no significant difference
